Values of other authors as cited in patent US20080213192A1, “AEROSOL LOTION FORMULATIONS” (Schering-Plough Healthcare Products, Inc., priority 2006, published 2008).

Conditions: Raval and Parrott, J. Pharm. Sci. 1967

- pH above which methylparaben hydrolyzes: > 6
SMILES: COC(=O)c1ccc(O)cc1 [methylparaben]
